Assay results from patent US10023565B2, “N,N′ substituted piperidinamine compounds, and preparation method and usage thereof” (Institute of Pharmacology and Toxicology Academy of …, priority 2013, dated 2018).

Columns and labels:
Assay in all cases: Antitumor bioactivity evaluation, breast cancer cells (ATPlite)
BT/Lap^R1.0 = type: cell-based, human; conditions: Homo sapiens; test sample 5 μM, 72 hours; read-out: Inhibitory Rate % BT/Lap^R1.0
Description: (§1) Antitumor bioactivity evaluation of the compounds of Examples according to the method described below
(§2) Cells plating: a 100 mm culture dish with overgrown adherent cells was digested with 1 ml 0.25% trypsin (GIBCO) at 37° C. for 5 min, and the reaction was terminated with 2 ml culture medium (containing 10% FBS, GIBCO). The cells were scattered and collected, after counting, diluted to 1×10^5 cells/ml, and seeded into a 96-well plate at 50 μl/well, 5000 cells/well, excluding the peripheral circle of wells in which no cell was added, but PBS was added, 60 wells in total, and then incubated at 37° C. for 24 hours for adhering.
(§3) Addition of the compound and lapatinib: the test sample was diluted to a final concentration of 5 μM, and the culture medium with the corresponding compound solvent concentration was filled in the control well, the compound solvent concentration was kept consistent in each well, 5 parellel wells were set for each concentration, 25 μl each well, 25 μl culture medium (in combined group, 25 μl lapatinib was added till a final concentration of 1 μM) supplemented, followed by incubation at 37° C. for 72 hours.
(§4) Test after incubation at 37° C. for 72 hours: 50 μL of ATPlite kit substrate solution was added in each well, and vibrated for 3 min, followed by placing aside in darkness for 10 min, and then supernatant 100 μl/well was taken and placed on aluminescence test plate; the luminescence test plate that has been fully incubated was placed in a luminescence test instrument, to read luminescence value.
(§5) 1. Cell survival rate (%)=Experimental group RLU/control group RLU×100%. The experimental data were subjected to data analysis and processing by utilizing GraphPad software.

BT474 = type: cell-based; conditions: Homo sapiens, BT-474; test sample 5 μM, 72 hours; read-out: Inhibitory Rate % BT474
Description: as §1, §2, §3, §4, §5

SK/Lap^R1.0 = type: cell-based; conditions: Homo sapiens; test sample 5 μM, 72 hours; read-out: Inhibitory Rate % SKLap^R1.0
Description: as §1, §2, §3, §4, §5

MDA-MB-453 = type: cell-based; conditions: Homo sapiens, test sample 5 μM, 72 hours, read-out: Inhibitory Rate % MDA-MB-453
Description: as §1, §2, §3, §4, §5

MDA-MB-361 = type: cell-based; conditions: Homo sapiens, test sample 5 μM, 72 hours, read-out: Inhibitory Rate % MDA-MB-361
Description: as §1, §2, §3, §4, §5

SK-BR3 = type: cell-based; conditions: Homo sapiens, SK-BR-3; test sample 5 μM, 72 hours; read-out: Inhibitory Rate % SK-BR3
Description: as §1, §2, §3, §4, §5

Row | Compound | inhibition at 5 µM (BT/Lap^R1.0) [%] | inhibition at 5 µM (BT474) [%] | inhibition at 5 µM (SK/Lap^R1.0) [%] | inhibition at 5 µM (MDA-MB-453) [%] | inhibition at 5 µM (MDA-MB-361) [%] | inhibition at 5 µM (SK-BR3) [%]
1 | CCOc1ncc(CN2CCC(N(C)Cc3ccc(C#N)cc3)CC2)s1 [Example 4, N-methyl-N-(4-cyanobenzyl)-N-{1-[(2-ethoxythiazol-5-yl)methyl]piperidin-4-yl}amine] | 66.1 | 61.7 | 6.7 | 70.5 | 51.3 | 45.5
2 | COc1nccc(N2CCC(N(C)Cc3cc(Cl)ccc3Cl)CC2)n1 [Example 52, N-methyl-N-(2,5-dichlorobenzyl)-N-[1-(2-methoxypyrimidin-4-yl)piperidin-4-yl]amine] | 68.1 | 74.2 | 80.7 | 68.7 | 64.1 | 87.6
3 | COc1cc(N2CCC(N(C)Cc3c(Cl)cccc3Cl)CC2)ncn1 [Example 60, N-methyl-N-(2,6-dichlorobenzyl)-N-[1-(6-methoxypyrimidin-4-yl)piperidin-4-yl]amine] | 52.5 | 53.6 | 19.2 | 65.1 | 30.8 | 22.8
4 | CSc1ncc(CN2CCC(N(C)Cc3ccccc3C)CC2)s1 [Example 25, N-methyl-N-(2-methylbenzyl)-N-{[1-(2-methylthiothiazol-5-yl)methyl]piperidin-4-yl}amine] | 1.4 | 15.5 | 6.9 | 35.1 | 31.7 | 21.9
5 | CSc1ncc(CN2CCC(N(C)Cc3ccc(Cl)cc3Cl)CC2)s1 [Example 33, N-methyl-N-(2,4-dichlorobenzyl)-N-{1-[(2-methylthiothiazol-5-yl)methyl]piperidin-4-yl}amine] | 66.3 | 70 | 40.4 | 72.4 | 36.3 | 37.8
6 | COc1nccc(N2CCC(N(C)Cc3cccc(F)c3)CC2)n1 [Example 56, N-methyl-N-(3-fluorobenzyl)-N-[1-(2-methoxypyrimidin-4-yl)piperidin-4-yl]amine] | 10.5 | 9.9 | 3.9 | 27.9 | 8.5 | 9.2
7 | CN(Cc1ccc(C#N)cc1)C1CCN(Cc2cnc(Cl)s2)CC1 [Example 15, N-methyl-N-(4-cyanobenzyl)-N-{1-[(2-chlorothiazol-5-yl)methyl]piperidin-4-yl}amine] | 68.7 | 69.3 | 7.5 | 68.5 | 35.6 | 41.5
8 | COc1nccc(N2CCC(N(C)Cc3cccc(Cl)c3)CC2)n1 [Example 55, N-methyl-N-(3-chlorobenzyl)-N-[1-(2-methoxypyrimidin-4-yl)piperidin-4-yl]amine] | 26.2 | 36.2 | 15.1 | 56.7 | 23.2 | 18.5
9 | CCOc1ncc(CN2CCC(N(C)Cc3ccc(F)cc3)CC2)s1 [Example 7, N-methyl-N-(4-fluorobenzyl)-N-{[1-(2-ethoxythiazol-5-yl)methyl]piperidin-4-yl}amine] | 20.7 | 36.4 | 25.1 | 52.9 | 24.2 | 26
10 | CN(Cc1ccc(F)cc1)C1CCN(Cc2cnc(Cl)s2)CC1 [Example 16, N-methyl-N-(4-fluorobenzyl)-N-{1-[(2-chlorothiazol-5-yl)methyl]piperidin-4-yl}amine] | 9 | 7.1 | -0.1 | 11 | -1.3 | 18.6
